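Each compound was tested at five concentrations against cells in 96-well plates for 48 hours. The concentration for 50% growth inhibition is given as GI50.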 Activity calls are given as the source filed them. Rule as the data show it: active = GI50 up to about 1.1 µM and inactive = higher.
Columns and labels:
Assay in all cases: NCI tumour cell line growth inhibition, 48 h
OVCAR-5 = tested on: OVCAR-5
HL-60 = tested on: HL-60
CAKI-1 = tested on: CAKI-1
HOP-62 = tested on: HOP-62
SNB-75 = tested on: SNB-75
KM12 = tested on: KM12
OVCAR-4 = tested on: OVCAR-4
LXFL 529 = tested on: LXFL 529
DMS-114 = tested on: DMS-114
NCI-H460 = tested on: NCI-H460
IGROV-1 = tested on: IGROV-1
EKVX = tested on: EKVX
ACHN = tested on: ACHN
SK-MEL-2 = tested on: SK-MEL-2
SF-268 = tested on: SF-268

Measured: GI50

COC(=O)/C(=N/NC(N)=O)C(C(=O)OC)C(=O)C(=O)Nc1ccc(Cl)cc1 (centres undefined)
inactive: OVCAR-5 > 100 µM | HL-60 > 76.2 µM | CAKI-1 > 100 µM | HOP-62 > 100 µM | SNB-75 > 100 µM | KM12 > 100 µM | OVCAR-4 > 100 µM | LXFL 529 > 100 µM | DMS-114 > 71.8 µM | NCI-H460 > 71.3 µM | IGROV-1 > 100 µM | EKVX > 100 µM | ACHN > 100 µM | SK-MEL-2 > 100 µM

O=C(CCCCCCCCCCc1ccccc1)C1=C(O)CC(O)CC1=O (centres undefined)
inactive: OVCAR-5 39.5 µM | HL-60 20.7 µM | SF-268 > 100 µM | CAKI-1 94.4 µM | HOP-62 > 100 µM | SNB-75 > 100 µM | KM12 38.4 µM | OVCAR-4 74.3 µM | LXFL 529 53.3 µM | DMS-114 35.5 µM | NCI-H460 46.3 µM | IGROV-1 72.4 µM | EKVX 81.1 µM | ACHN 58.5 µM | SK-MEL-2 25.4 µM

CCO/C([O-])=C(/C=O)[n+]1c(C)n(C)c2ccccc21
inactive: OVCAR-5 > 100 µM | HL-60 > 100 µM | SF-268 > 100 µM | CAKI-1 > 100 µM | HOP-62 > 100 µM | SNB-75 > 100 µM | KM12 > 100 µM | OVCAR-4 > 100 µM | LXFL 529 > 100 µM | DMS-114 > 100 µM | NCI-H460 > 100 µM | IGROV-1 > 100 µM | EKVX > 100 µM | SK-MEL-2 > 100 µM

CCC/C=C1\CCC(CN(C)C)C1=O (centres undefined)
inactive: OVCAR-5 20 µM | HL-60 9.25 µM | SF-268 14.5 µM | CAKI-1 2.13 µM | HOP-62 15.7 µM | SNB-75 18.1 µM | KM12 4.67 µM | OVCAR-4 18.8 µM | LXFL 529 1.82 µM | DMS-114 15.6 µM | NCI-H460 28.1 µM | IGROV-1 18.5 µM | EKVX 6.12 µM | ACHN 5.62 µM | SK-MEL-2 15.9 µM

O=C(Nc1c(O)[nH]c(=S)[nH]c1=O)c1ccc2ccccc2n1
inactive: HL-60 > 100 µM | SF-268 > 100 µM | CAKI-1 > 100 µM | HOP-62 > 100 µM | SNB-75 > 100 µM | OVCAR-4 > 100 µM | LXFL 529 > 100 µM | DMS-114 > 100 µM | NCI-H460 > 100 µM | IGROV-1 > 100 µM | ACHN > 100 µM

C1CCC(N=C2N(C3CCCCC3)C(=NC3CCCCC3)N2C2CCCCC2)CC1
inactive: OVCAR-5 > 100 µM | HL-60 > 100 µM | SF-268 > 100 µM | HOP-62 > 100 µM | SNB-75 20.9 µM | KM12 > 100 µM | OVCAR-4 > 100 µM | LXFL 529 > 100 µM | DMS-114 > 100 µM | NCI-H460 > 100 µM | IGROV-1 > 100 µM | EKVX > 100 µM | ACHN > 100 µM | SK-MEL-2 > 100 µM

COC(=O)CC1N/C(=N\C#N)N(CCc2c[nH]c3ccccc23)C1=O (centres undefined)
inactive: OVCAR-5 > 100 µM | HL-60 > 100 µM | SF-268 > 100 µM | HOP-62 > 100 µM | SNB-75 > 100 µM | KM12 > 100 µM | OVCAR-4 > 100 µM | LXFL 529 > 100 µM | DMS-114 > 100 µM | NCI-H460 > 100 µM | IGROV-1 > 100 µM | EKVX 83 µM | ACHN > 100 µM

O=c1cc(-c2ccccc2)[nH]c2cc(F)cc(F)c12
inactive: OVCAR-5 43.5 µM | HL-60 21.8 µM | SF-268 > 100 µM | CAKI-1 21.8 µM | HOP-62 26.5 µM | SNB-75 14.8 µM | KM12 4.56 µM | OVCAR-4 > 100 µM | LXFL 529 53.6 µM | DMS-114 24.7 µM | NCI-H460 28.3 µM | IGROV-1 37.8 µM | ACHN 50.9 µM | SK-MEL-2 18.2 µM

Cc1nc(C(N)=S)sc1C(=O)CC(=O)C(=O)Nc1c(C(C)C)cccc1C(C)C
inactive: OVCAR-5 > 100 µM | HL-60 28 µM | SF-268 > 100 µM | CAKI-1 42.1 µM | HOP-62 86.9 µM | SNB-75 25.2 µM | KM12 40.7 µM | OVCAR-4 > 100 µM | LXFL 529 52 µM | DMS-114 26.7 µM | NCI-H460 40.5 µM | IGROV-1 61.4 µM | EKVX > 100 µM | ACHN 81.5 µM | SK-MEL-2 65.5 µM

CC(=O)NC(CCCCN(Cc1ccccc1)C(=O)NCCCl)C(=O)NCc1ccccc1 (centres undefined)
inactive: HL-60 > 100 µM | SF-268 > 100 µM | CAKI-1 > 100 µM | HOP-62 > 100 µM | SNB-75 > 100 µM | KM12 > 100 µM | OVCAR-4 > 100 µM | LXFL 529 > 100 µM | DMS-114 > 100 µM | NCI-H460 > 100 µM | IGROV-1 > 100 µM | EKVX > 100 µM | ACHN > 100 µM | SK-MEL-2 > 100 µM

NC1CCCCC1.O=P(O)(O)C1(P(=O)(O)O)CC1
inactive: OVCAR-5 > 100 µM | SF-268 > 100 µM | CAKI-1 > 100 µM | HOP-62 > 100 µM | SNB-75 > 100 µM | KM12 > 100 µM | OVCAR-4 > 100 µM | LXFL 529 > 100 µM | DMS-114 > 100 µM | NCI-H460 > 100 µM | IGROV-1 > 100 µM | EKVX > 100 µM | ACHN > 100 µM | SK-MEL-2 > 100 µM

CCCCCCCCCC(=O)OCC1OC(n2cc(F)c(=O)[nH]c2=O)C(N)C(OC(=O)CCCCCCCCC)C1O (centres undefined)
inactive: HL-60 23.3 µM | SF-268 20.2 µM | CAKI-1 38.2 µM | HOP-62 37.2 µM | SNB-75 16.3 µM | KM12 19.1 µM | OVCAR-4 15.8 µM | LXFL 529 16.6 µM | DMS-114 15.7 µM | NCI-H460 19.4 µM | IGROV-1 > 100 µM | EKVX 18.2 µM | ACHN 40.2 µM | SK-MEL-2 15.5 µM

O=C(CC1(O)C(=O)Nc2ccccc21)c1ccc(O)cc1O (centres undefined)
inactive: OVCAR-5 > 100 µM | HL-60 > 100 µM | SF-268 > 100 µM | CAKI-1 > 100 µM | HOP-62 > 100 µM | SNB-75 > 100 µM | OVCAR-4 > 100 µM | LXFL 529 > 100 µM | DMS-114 > 100 µM | NCI-H460 > 100 µM | IGROV-1 > 100 µM | EKVX > 100 µM | ACHN > 100 µM | SK-MEL-2 > 100 µM

O=C(O)/C=C/c1nc2ccccc2c(=O)o1
inactive: HL-60 > 100 µM | SNB-75 > 100 µM | KM12 > 100 µM | OVCAR-4 > 100 µM | LXFL 529 > 100 µM | DMS-114 > 100 µM | IGROV-1 > 100 µM | EKVX > 100 µM | ACHN > 100 µM | SK-MEL-2 > 100 µM

N#CC(C(=O)CCC(=O)Nc1cccc(C(F)(F)F)c1)c1ccccc1 (centres undefined)
inactive: OVCAR-5 > 100 µM | HL-60 > 100 µM | SF-268 > 100 µM | CAKI-1 > 100 µM | HOP-62 > 100 µM | SNB-75 > 100 µM | KM12 > 100 µM | OVCAR-4 > 100 µM | LXFL 529 > 100 µM | DMS-114 > 100 µM | NCI-H460 > 100 µM | IGROV-1 > 100 µM | EKVX > 100 µM | ACHN > 100 µM | SK-MEL-2 > 100 µM

CCN(CC)C(=O)Cc1[nH][nH]c(=O)c1C(=O)N(CC)CC
inactive: HL-60 > 100 µM | SF-268 > 100 µM | HOP-62 > 100 µM | SNB-75 > 100 µM | KM12 > 100 µM | OVCAR-4 > 100 µM | LXFL 529 > 100 µM | DMS-114 > 100 µM | NCI-H460 > 100 µM | IGROV-1 > 100 µM | EKVX > 100 µM | ACHN > 100 µM | SK-MEL-2 > 100 µM
